# Patent US5245034A, “Compound having vessel smooth muscle relaxation activity” (Hidaka; Kiroyoshi, priority 1988, dated 1993)
# Legend:
# [1] = molecular target: Calmodulin-Dependent Phosphodiesterase (Ca^2+ PDE); test: Calmodulin-Dependent Phosphodiesterase Inhibition (Ca^2+ PDE); type: biochemical, rat; settings: [^3 H]-cGMP, 30° C.
# Description: Phosphodiesterase (Ca^2+ PDE)Ca^2+ PDE was partially purified from the brain of rat by DEAE-Sepharose column chromatography.
# Calmodulin was purified from the calf brain using a calmodulin inhibitor W-7 affinity column.
# A reaction mixture contained 20 μl of 500 mM Tris-HCl (pH 8.0), 20 μl of 50 mM MgCl2, 20 μl of 2 mM CaCl2 (or 10 mM EGTA), 20 μl of 1 mg/ml bovine serum albumin, PDE, […] of calmodulin, test sample and distilled water to make total volume 200 μl. To the mixture was added 20 μl of 4 μM [^3 H]-cGMP (2.5 μCi/ml), the mixture was incubated at 30° C. for 15 minutes, and then heated in boiling water for 3 to 5 minutes to terminate the reaction, and cooled in ice-water bath. 20 μg of 5'-nucleotidase (Snake venum) was added to the mixture, and the mixture was again incubated at 30° C. for 10 minutes. After addition of about 2 ml of water, the sample was applied to a cation exchange resin column (Biorad AG.AG50W-X4 to adsorbe the [^3 H]-guanosine and additionally about 2 ml of washing water for the sample was added to the column. The column was washed with about 20 ml of water, and the adsorbed [^3 H]-guanosine was eluted with 3 ml of 3N NH4 OH, and the elute was directly received by a vial. After an addition of 10 ml of an emulsified scintillation solution (ACS-II, AMERSHAM) the radio activity was measured by a scintillation counter LS7500 (Beckmann). The enzyme activity in the presence of calmodulin was taken as […], and a concentration of a test compound in μM which provides a 50% inhibition was expressed as IC50.
# [2] = system: superior mesenteric artery (contracted by potassium chloride); test: Vessel Smooth Muscle Relaxation Action (V.R.); type: cell-based, rabbit; settings: Oryctolagus cuniculus; concentration relaxing KCl-contracted strain to 50%; cumulative administration; read-out: V.R. (ED50)
# Text: The specimen was suspended by loading a strain in Krebs-Henseleit solution through which an oxygen gas containing 5% carbon dioxide was bubbled. The specimen was contracted by adding potassium chloride to maintain a predetermined strain. Thereafter, a test compound was cumulatively administrated.
Structure (SMILES),IC50 [1] [µM],EC50 [2] [µM]
"CN(C(Cc1ccc(NS(C)(=O)=O)cc1)C(=O)N1CCN(c2ccccc2)CC1)S(=O)(=O)c1cccc2cnccc12 (stereo not shown) [Example 19, 1-[N-(5-Isoquinolinesulfonyl)-P-Methanesulfonylamino-N-Methylphenylalanyl]-4-Phenylpiperazine]",20,22
"CN(C(Cc1ccc(NS(=O)(=O)c2cccc3ccccc23)cc1)C(=O)N1CCN(c2ccccc2)CC1)S(=O)(=O)c1cccc2cnccc12 (stereo not shown) [Example 20, 1-[N-(5-isoquinolinesulfonyl)-N-methyl-p-(1-naphtharenesulfonylamino)phenylalanyl]-4-phenylpiperazine]",23,1
"CN(c1ccc(CC(C(=O)N2CCN(c3ccccc3)CC2)N(C)S(=O)(=O)c2cccc3cnccc23)cc1)S(=O)(=O)c1cccc2cnccc12 (stereo not shown) [Example 23, 1-{N-(5-Isoquinolinesulfonyl)-P-[N'-(5-Isoquinolinesulfonyl)-N'-Methylamino]-N-Methylphenylalanyl}-4-Phenylpiperazine]",66,0.25
"CN(c1ccc(CC(C(=O)N2CCN(c3ccccc3)CC2)N(C)S(=O)(=O)c2cccc3cnccc23)cc1)S(C)(=O)=O (stereo not shown) [Example 24, 1-[N-(5-isoquinolinesulfonyl)-p-(N'-methanesulfonyl-N'-methylamino) N-methylphenylalanyl]-4-phenylpiperazine]",63,8.3
"CN(c1ccc(CC(C(=O)N2CCN(c3ccccc3)CC2)N(C)S(=O)(=O)c2cccc3cnccc23)cc1)S(=O)(=O)c1cccc2ccccc12 (stereo not shown) [Example 25, 1-{N-(5-isoquinolinesulfonyl)-N-methyl-p-[N'-methyl-N'-(1-naphtharenesulfonyl)amino]phenylalanyl}-4-phenylpiperazine]",70,0.55
"CN(C(Cc1ccc(OS(=O)(=O)c2cccc3ccccc23)cc1)CN1CCN(c2ccccc2)CC1)S(=O)(=O)c1cccc2ccccc12 (stereo not drawn) [Example 57, N-methyl-N-{1-[p-(α-naphtharenesulfonyloxy) -benzyl]-2-(4-phenylpiperazinyl)ethyl}-α-naphtharenesulfonamide]",50,0.75
"CN(C(Cc1ccc(O)cc1)CN1CCN(c2ccccc2)CC1)S(=O)(=O)c1cccc2ccccc12 (stereo not drawn) [Example 58, N-[1-(p-hydroxybenzyl)-2-(4-phenylpiperazinyl)ethyl]-N-methyl-α-naphtharenesulfonamide]",63,0.25
"O=S(=O)(NC(Cc1ccc(O)cc1)CN1CCCN(c2ccccc2)CC1)c1cccc2cnccc12 (stereo not shown) [Example 82, N-[1-(P-Hydroxybenzyl)-2-(4-Phenylhomopiperazinyl)Ethyl]-5-Isoquinolinesulfonamide]",33,0.86
"CN(C(Cc1ccc(O)cc1)CN1CCCN(c2ccccc2)CC1)S(=O)(=O)c1cccc2cnccc12 (stereo not shown) [Example 83, N-[1-(P-Hydroxybenzyl)-2-(4-Phenylhomopiperazinyl)Ethyl]-N-Methyl-5-Isoquinolinesulfonamide]",24,0.39
O=S(=O)(NC(Cc1ccc(OS(=O)(=O)c2cccc3cnccc23)cc1)CN1CCC(OCc2ccc(Cl)c(Cl)c2)CC1)c1cccc2cnccc12 (stereo not shown) [Example 86],24,13
"CN(C(Cc1ccc(OS(=O)(=O)c2cccc3cnccc23)cc1)CN1CCC(O)CC1)S(=O)(=O)c1cccc2cnccc12 (stereo not shown) [Example 99, N-{2-(4-Hydroxypiperidino)-1-[P-(5-Isoquinolinesulfonyloxy)Benzyl]Ethyl}-N-Methyl-5-Isoquinolinesulfonamide]",61,2.8
"Cc1ccc(CN(C(Cc2ccc(O)cc2)CN2CCC(O)CC2)S(=O)(=O)c2cccc3cnccc23)cc1 (stereo not shown) [Example 106, N-[1-(P-Hydroxybenzyl)-2-(4-Hydroxypiperidino)Ethyl]-N-P-Methylbenzyl-5-Isoquinolinesufonamide]",28,8.9
"O=C([C@H](Cc1ccc(O)cc1)NS(=O)(=O)c1cccc2cnccc12)N1CCN(c2ccccc2)CC1 [Example 111, 1-[N-(5-isoquinolinesulfonyl)tyrosyl]-4-phenylpiperazine]",77,7
"O=C(CCc1ccccc1)N1CCCN(CC(Cc2ccc(O)cc2)NS(=O)(=O)c2cccc3cnccc23)CC1 (stereo not shown) [Example 119, N-{1-(P-Hydroxybenzyl)-2-[4-(3-Phenylpropionyl)Homopiperazinyl]Ethyl}-5-Isoquinolinesulfonylamide]",51,11
"CN(c1ccccc1NCC=Cc1ccc(Cl)cc1)S(=O)(=O)c1cccc2cnccc12 [Example 143, N-[2-(4-Chlorocinnamylamino)Phenyl]-N-Methyl-5 -Isoquinolinesulfonamide]",15,0.82

# The next compounds have a lower IC50 [1] than those just listed; values first:
IC50 [1] [µM],EC50 [2] [µM],Structure (SMILES)
10.5,0.81,"CN(C(Cc1ccc(O)cc1)CN1CCN(c2ccccc2)CC1)S(=O)(=O)c1cccc2cnccc12 (stereo not shown) [Example 36, N-[1-(P-Hydroxybenzyl)-2-(4-Phenylpiperazinyl)Ethyl]-N-Methyl-5-Isoquinolinesulfonamide]"
6.5,3.9,O=S(=O)(NC(Cc1ccc(OS(=O)(=O)c2cccc3cnccc23)cc1)CN1CCN(c2ccc(F)cc2)CC1)c1cccc2cnccc12 (stereo not shown) [Example 48]
13,2.4,O=S(=O)(NC(Cc1ccc(OS(=O)(=O)c2cccc3cnccc23)cc1)CN1CCCN(c2ccccc2)CC1)c1cccc2cnccc12 (stereo not shown) [Example 80]
1.9,1.7,"O=S(=O)(NC(Cc1ccc(O)cc1)CN1CCC(OCc2ccc(Cl)c(Cl)c2)CC1)c1cccc2cnccc12 (stereo not shown) [Example 87, N-{1-(p-hydroxybenzyl)-2-[4-(3,4-dichlorobenzyloxy)piperidino]ethyl}-5-isoquinolinesulfonamide]"
14,4.3,"O=S(=O)(NC(Cc1ccc(OCc2ccccc2)cc1)CN1CCN(c2ccccc2)CC1)c1cccc2cnccc12 (stereo not shown) [Example 88, N-{1-[(4-benzyloxy)benzyl]-2-(4-phenylpiperazinyl)ethyl}-5-isoquinolinesulfonamide]"
3.4,0.33,"CN(C(Cc1ccc(O)cc1)CN1CCC(OCc2ccc(Cl)c(Cl)c2)CC1)S(=O)(=O)c1cccc2cnccc12 (stereo not shown) [Example 90, N-{2-[4-(3,4-Dichlorobenzyloxy)Piperidino]-1-(P-Hydroxybenzyl)Ethyl}-N-Methyl-5-Isoquinolinesulfonamide]"
10,1.1,"COc1ccc(CC(CN2CCC(OCc3ccc(Cl)c(Cl)c3)CC2)N(C)S(=O)(=O)c2cccc3cnccc23)cc1 (stereo not shown) [Example 91, N-{2-[4-(3,4-Dichlorobenzyloxy)Piperidine]-1-(P-Methoxybenzyl)Ethyl}-N-Methyl-5-Isoquinolinesulfonamide]"
3.4,0.31,"CN(C(Cc1ccc(O)cc1)CN1CCC(c2ccccc2)CC1)S(=O)(=O)c1cccc2cnccc12 (stereo not shown) [Example 93, N-[1-(p-hydroxybenzyl)-2-(4-phenylpiperidino)ethyl]-N-methyl-5-isoquinolinesulfonamide]"
12,5.4,"O=S(=O)(c1cccc2cnccc12)N(Cc1ccc(Cl)c(Cl)c1)C(Cc1ccc(O)cc1)CN1CCC(O)CC1 (stereo not shown) [Example 105, N-3,4-Dichlorobenzyl-N-[1-(P-Hydroxybenzyl)-2-(4-Hydroxypiperidino)Ethyl]-5-Isoquinolinesulfonamide]"
10,1.2,"O=C([C@H](Cc1ccc(OS(=O)(=O)c2cccc3cnccc23)cc1)NS(=O)(=O)c1cccc2cnccc12)N1CCN(c2ccccc2)CC1 [Example 108, 1-[N,O-Bis(5-Isoquinolinesulfonyl)Tyrosyl]-4-Phenylpiperazine]"
1.3,0.59,"CN([C@@H](Cc1ccc(OS(=O)(=O)c2cccc3cnccc23)cc1)C(=O)N1CCN(c2ccccc2)CC1)S(=O)(=O)c1cccc2cnccc12 [Example 109, 1-[N,O-Bis(5-Isoquinolinesulfonyl)-N-Methyltyrosyl]-4-Phenylpiperazine]"
9.3,3.8,"CN([C@@H](Cc1ccc(O)cc1)C(=O)N1CCN(c2ccccc2)CC1)S(=O)(=O)c1cccc2cnccc12 [Example 110, 1-[N-(5-Isoquinolinesulfonyl)-N-Methyltyrosyl]-4-Phenylpiperazine]"
1.1,6.8,"O=S(=O)(Nc1ccccc1NCC=Cc1ccc(Cl)cc1)c1cccc2cnccc12 [Example 142, N-[2-(4-Chlorocinnamylamino)Phenyl]-5-Isoquinolinesulfonamide]"
1,1.8,"O=S(=O)(c1cccc2cnccc12)N1CCN(CC=Cc2ccc(Cl)cc2)c2ccccc21 [Example 144, 1-(4-Chlorocinnamyl)-4-(5-Isoquinolinesulfonyl)-1,2,3,4-Tetrahydroquinoxaline]"
